Legend:
SH-SY5Y [1] = assay: Neuroprotective activity against human SH-SY5Y cells assessed as protection reduction in H2O2-induced LDH release at 3 uM after 24 hrs; assay type: functional; parameters: scale not given: the % may be the effect or the level left
Acetylcholinesterase [2] = biological target: T1, Acetylcholinesterase (Bos taurus, UniProt P23795)
T1 sequence (P23795 whole entry): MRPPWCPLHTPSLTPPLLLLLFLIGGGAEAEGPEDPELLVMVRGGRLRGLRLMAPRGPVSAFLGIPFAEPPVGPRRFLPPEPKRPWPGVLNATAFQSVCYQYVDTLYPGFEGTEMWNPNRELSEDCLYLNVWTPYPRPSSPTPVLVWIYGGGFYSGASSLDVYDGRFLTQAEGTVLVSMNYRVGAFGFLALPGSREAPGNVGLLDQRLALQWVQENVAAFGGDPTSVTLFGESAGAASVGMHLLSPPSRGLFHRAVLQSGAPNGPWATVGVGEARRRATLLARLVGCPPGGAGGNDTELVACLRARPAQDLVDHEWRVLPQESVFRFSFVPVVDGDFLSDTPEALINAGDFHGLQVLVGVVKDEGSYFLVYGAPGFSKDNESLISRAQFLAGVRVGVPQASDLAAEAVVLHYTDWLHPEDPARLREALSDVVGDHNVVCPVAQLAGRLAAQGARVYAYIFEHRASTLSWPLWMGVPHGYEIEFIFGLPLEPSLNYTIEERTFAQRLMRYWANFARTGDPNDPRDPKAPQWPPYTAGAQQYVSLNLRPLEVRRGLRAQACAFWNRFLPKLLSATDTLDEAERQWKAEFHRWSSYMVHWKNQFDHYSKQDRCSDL
Description: Inhibition of AChE in bovine erythrocyte by Ellman method

SH-SY5Y [3] = assay: Neuroprotective activity against human SH-SY5Y cells assessed as protection reduction in H2O2-induced LDH release at 1 uM after 24 hrs; assay type: functional; parameters: scale not given: the % may be the effect or the level left
Acetylcholinesterase [4] = biological target: T2, Acetylcholinesterase (Homo sapiens, UniProt P22303); assay: Displacement of propidium iodide from AChE peripheral anionic site at 1 uM
T2 sequence (P22303 whole entry): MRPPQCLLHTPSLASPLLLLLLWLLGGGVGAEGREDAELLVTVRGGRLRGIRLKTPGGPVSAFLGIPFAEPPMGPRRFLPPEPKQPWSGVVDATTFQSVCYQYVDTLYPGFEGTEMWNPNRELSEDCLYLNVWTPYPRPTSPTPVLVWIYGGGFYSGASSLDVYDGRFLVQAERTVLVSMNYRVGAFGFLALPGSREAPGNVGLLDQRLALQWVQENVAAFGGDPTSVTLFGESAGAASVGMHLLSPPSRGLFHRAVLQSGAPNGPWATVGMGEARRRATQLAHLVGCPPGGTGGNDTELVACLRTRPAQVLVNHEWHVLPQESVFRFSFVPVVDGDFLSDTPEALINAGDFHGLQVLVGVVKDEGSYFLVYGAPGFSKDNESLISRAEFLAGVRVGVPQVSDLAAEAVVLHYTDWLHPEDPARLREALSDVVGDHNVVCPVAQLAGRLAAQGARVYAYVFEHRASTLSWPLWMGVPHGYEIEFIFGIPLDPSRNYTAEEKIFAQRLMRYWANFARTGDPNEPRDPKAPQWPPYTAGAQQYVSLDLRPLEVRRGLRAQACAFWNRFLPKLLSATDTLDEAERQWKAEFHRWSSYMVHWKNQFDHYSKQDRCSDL

SH-SY5Y [5] = assay: Neuroprotective activity against human SH-SY5Y cells assessed as protection reduction in H2O2-induced LDH release at 10 uM after 24 hrs; assay type: functional; parameters: scale not given: the % may be the effect or the level left
SH-SY5Y [6] = assay: Neuroprotective activity against human SH-SY5Y cells assessed as protection reduction in H2O2-induced LDH release at 30 uM after 24 hrs; assay type: functional; parameters: scale not given: the % may be the effect or the level left
Cholinesterase [7] = biological target: Cholinesterase (Homo sapiens, UniProt P06276); assay: Inhibition of human BuChE in serum; assay type: cell-free
Chain of Cholinesterase (Homo sapiens, UniProt P06276) (P06276 whole entry): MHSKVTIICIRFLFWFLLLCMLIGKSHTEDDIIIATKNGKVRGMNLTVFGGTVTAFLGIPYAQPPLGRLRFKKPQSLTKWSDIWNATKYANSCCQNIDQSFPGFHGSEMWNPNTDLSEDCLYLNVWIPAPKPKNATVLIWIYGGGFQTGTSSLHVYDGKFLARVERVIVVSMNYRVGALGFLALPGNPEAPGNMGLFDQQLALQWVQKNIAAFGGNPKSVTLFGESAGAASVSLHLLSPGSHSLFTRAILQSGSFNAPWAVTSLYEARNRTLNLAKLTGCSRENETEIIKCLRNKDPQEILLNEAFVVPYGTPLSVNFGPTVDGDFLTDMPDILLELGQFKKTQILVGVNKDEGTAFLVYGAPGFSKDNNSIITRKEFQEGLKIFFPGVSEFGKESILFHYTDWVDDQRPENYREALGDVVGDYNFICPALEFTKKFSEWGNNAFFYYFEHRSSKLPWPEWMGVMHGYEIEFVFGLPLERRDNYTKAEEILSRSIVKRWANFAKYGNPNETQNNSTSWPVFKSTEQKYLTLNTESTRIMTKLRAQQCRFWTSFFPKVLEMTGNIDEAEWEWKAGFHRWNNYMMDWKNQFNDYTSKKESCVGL

Acetylcholinesterase [8] = biological target: T2, Acetylcholinesterase; assay: Displacement of propidium iodide from AChE peripheral anionic site at 0.3 uM
in vitro = conditions: PAMPA
Description: Permeability across PAMPA membrane

Acetylcholinesterase [9] = biological target: T2, Acetylcholinesterase
Description: Inhibition of human AChE in erythrocyte

SH-SY5Y [10] = assay: Neuroprotective activity against H2O2-induced human SH-SY5Y cells assessed as cell viability at 30 uM after 24 hrs; assay type: functional; conditions: read-out: Activity
Acetylcholinesterase [11] = biological target: T2, Acetylcholinesterase; assay: Displacement of propidium iodide from AChE peripheral anionic site at 3 uM
Cholinesterase [12] = biological target: Cholinesterase (Equus caballus, UniProt P81908)
Chain of Cholinesterase (Equus caballus, UniProt P81908) (P81908 whole entry): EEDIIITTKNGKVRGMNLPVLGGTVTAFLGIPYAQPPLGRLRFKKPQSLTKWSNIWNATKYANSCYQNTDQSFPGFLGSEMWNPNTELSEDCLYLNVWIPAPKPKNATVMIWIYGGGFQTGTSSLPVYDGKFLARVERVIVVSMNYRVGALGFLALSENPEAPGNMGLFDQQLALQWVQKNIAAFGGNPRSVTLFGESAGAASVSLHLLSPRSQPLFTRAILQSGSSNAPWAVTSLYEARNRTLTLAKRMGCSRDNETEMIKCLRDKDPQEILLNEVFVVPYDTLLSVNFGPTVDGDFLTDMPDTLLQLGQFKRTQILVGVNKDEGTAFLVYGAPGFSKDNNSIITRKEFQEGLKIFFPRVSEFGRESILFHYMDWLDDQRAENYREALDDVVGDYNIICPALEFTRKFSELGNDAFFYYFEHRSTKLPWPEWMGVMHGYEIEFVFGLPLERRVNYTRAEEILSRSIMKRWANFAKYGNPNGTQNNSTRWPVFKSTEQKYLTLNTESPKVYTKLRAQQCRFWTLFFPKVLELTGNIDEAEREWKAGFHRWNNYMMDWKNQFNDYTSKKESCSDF
Description: Inhibition of BuChE in horse serum by Ellman method

SH-SY5Y [13] = assay: Neuroprotective activity against rotenone/oligomycin A-treated human SH-SY5Y cells assessed as cytoprotection at 1 uM pretreated 24 hrs before rotenone/oligomycin A challenge; assay type: functional
SH-SY5Y [14] = assay: Neuroprotective activity against human SH-SY5Y cells assessed as cytoprotection at 1 uM coincubated with rotenone/oligomycin A measured after 24 hrs; assay type: functional
SH-SY5Y [15] = assay: Neuroprotective activity against human SH-SY5Y cells assessed as cytoprotection at 0.3 uM coincubated with rotenone/oligomycin A measured after 24 hrs; assay type: functional
SH-SY5Y [16] = assay: Neuroprotective activity against rotenone/oligomycin A-treated human SH-SY5Y cells assessed as cytoprotection at 0.3 uM pretreated 24 hrs before rotenone/oligomycin A challenge; assay type: functional
SH-SY5Y [17] = assay: Neuroprotective activity against human SH-SY5Y cells assessed as cytoprotection at 0.1 uM coincubated with rotenone/oligomycin A measured after 24 hrs; assay type: functional
SH-SY5Y [18] = assay: Neuroprotective activity against rotenone/oligomycin A-treated human SH-SY5Y cells assessed as cytoprotection at 0.1 uM pretreated 24 hrs before rotenone/oligomycin A challenge; assay type: functional
SH-SY5Y [19] = assay: Neuroprotective activity against human SH-SY5Y cells assessed as cytoprotection at 3 uM coincubated with rotenone/oligomycin A measured after 24 hrs; assay type: functional
SH-SY5Y [20] = assay: Neuroprotective activity against rotenone/oligomycin A-treated human SH-SY5Y cells assessed as cytoprotection at 3 uM pretreated 24 hrs before rotenone/oligomycin A challenge; assay type: functional

Compound | Activity (SH-SY5Y [1]) | IC50 (Acetylcholinesterase [2]) | Activity (SH-SY5Y [3]) | Activity (Acetylcholinesterase [4]) | Activity (SH-SY5Y [5]) | Activity (SH-SY5Y [6]) | IC50 (Cholinesterase [7]) | Activity (Acetylcholinesterase [8]) | Papp (in vitro) | IC50 (Acetylcholinesterase [9]) | viability at 30 µM (SH-SY5Y [10]) | Activity (Acetylcholinesterase [11]) | IC50 (Cholinesterase [12]) | Activity (SH-SY5Y [13]) | Activity (SH-SY5Y [14]) | Activity (SH-SY5Y [15]) | Activity (SH-SY5Y [16]) | also measured
CCCCCCOC(=O)[C@H](CCC(=O)NCCC1CCN(Cc2ccccc2)CC1)NC(=O)OC(C)(C)C | 1.7% | 5000 nM | 24.9% | 43.6% | 0% | 0% | 3000 nM | 42.3% | 11.6 ×10⁻⁶ cm/s | 950 nM | 100% | 42% | 3500 nM | – | – | – | – | –
CCCCCCOC(=O)[C@H](CCC(=O)NCCC1CCN(Cc2ccccc2)CC1)NC(=O)c1cccs1 | 64.5% | 3500 nM | 55.1% | 10.3% | 73% | 31.8% | 1800 nM | 7.5% | 20.9 ×10⁻⁶ cm/s | 500 nM | 100% | 15% | 1000 nM | 22.3% | 7% | 0% | 27.1% | Activity (SH-SY5Y [17]): 0%; Activity (SH-SY5Y [18]): 48.9%
Cc1c(C)c2c(c(C)c1O)CCC(C)(C(=O)O)O2 (centres undefined) [TROLOX] | 0% | – | 0% | – | – | 57.7% | – | – | – | – | – | – | – | – | – | – | – | Activity (SH-SY5Y [19]): 63.7%; Activity (SH-SY5Y [20]): 65.1%
CCCCCCOC(=O)[C@H](CCC(=O)NCCC1CCN(Cc2ccccc2)CC1)NC(=O)c1cc2cccnc2s1 | 30.7% | 330 nM | 0% | 35.4% | 27.9% | 48.8% | 830 nM | 37.4% | 18.8 ×10⁻⁶ cm/s | 440 nM | 100% | 27.2% | 950 nM | – | – | – | – | –
CCCCCCOC(=O)[C@H](CCC(=O)NCCC1CCN(Cc2ccccc2)CC1)NC(=O)c1cc2ccsc2s1 | 41.6% | 3500 nM | 54.5% | 33.3% | 46.4% | 20.3% | 350 nM | 42.2% | 28.5 ×10⁻⁶ cm/s | 300 nM | 100% | 23.3% | 700 nM | 45.4% | 30.8% | 20.8% | 46.1% | Activity (SH-SY5Y [17]): 22.3%; Activity (SH-SY5Y [18]): 34.8%
CCCCCCOC(=O)[C@H](CCC(=O)NCCC1CCN(Cc2ccccc2)CC1)NC(=O)OCc1ccccc1 | 17.4% | 1400 nM | 4.1% | 25% | 39.1% | 5.3% | 730 nM | 20.8% | – | 250 nM | 100% | 29.3% | 750 nM | – | – | – | – | –
CCCCCCOC(=O)[C@H](CCC(=O)NCCC1CCN(Cc2ccccc2)CC1)NC(=O)Cc1cc2ccc(Cl)cc2s1 | 32.5% | 2300 nM | 26.2% | 16% | 0% | 0% | 70 nM | 14.7% | – | 100 nM | 100% | 23.4% | 50 nM | – | – | – | – | –
CCCCCCOC(=O)[C@H](CCC(=O)NCCC1CCN(Cc2ccccc2)CC1)NC(=O)c1cc(Br)cs1 | 84.3% | 1200 nM | 63.3% | < 0.5% | 66.7% | 66.7% | 850 nM | 11.3% | – | 180 nM | 100% | < 0.5% | 750 nM | 27.8% | 0% | 19.7% | 19% | Activity (SH-SY5Y [19]): 19.6%; Activity (SH-SY5Y [20]): 21.4%
CCCCCCOC(=O)[C@H](CCC(=O)NCCC1CCN(Cc2ccccc2)CC1)NC(=O)c1cc2ccccc2s1 | 20.9% | 2500 nM | 28.7% | 26.5% | 21.2% | 17.9% | 330 nM | 31.5% | 25.6 ×10⁻⁶ cm/s | 270 nM | 100% | 39.7% | 550 nM | – | – | – | – | –
C=CC[N+](C)(C)c1ccc(CCC(=O)CCc2ccc([N+](C)(C)CC=C)cc2)cc1 | – | – | – | – | – | – | – | – | – | – | – | 16% | – | – | – | – | – | –
CCCCCCOC(=O)[C@H](CCC(=O)NCCC1CCN(Cc2ccccc2)CC1)NC(=O)c1ccccc1 | 68.1% | 1900 nM | 43.9% | 15.9% | 52.4% | 67% | 1750 nM | 24.7% | 18.7 ×10⁻⁶ cm/s | 530 nM | 100% | 37.3% | 1500 nM | 43.8% | 21% | 20.1% | 47.9% | Activity (SH-SY5Y [19]): 15.1%; Activity (SH-SY5Y [20]): 38.5%
